What was measured:
[1] = test system: Cyperus iria; test: Preemergence weed control under flooded paddy conditions, CYPIR (Rice Flatsedge); type: in vivo; conditions: flooded paddy; for CYPIR: herbicidal effect rating 0-9, three to four weeks after treatment; for CYPIR herbicidal rating / herbicidal effect rating, CYPIR: rated three to four weeks after treatment; on herbicidal effect rating, CYPIR: meaning of each grade not given here
[2] = test system: Sagittaria pygmaea, L.; test: Preemergence weed control under flooded paddy conditions, SAGPY (Arrowhead (Pygmaea)); type: in vivo; conditions: flooded paddy; for SAGPY: herbicidal effect rating 0-9, three to four weeks after treatment; for SAGPY herbicidal rating / herbicidal effect rating, SAGPY: rated three to four weeks after treatment; on herbicidal effect rating, SAGPY: meaning of each grade not given here
[3] = test system: Echinochloa oryzoides (Ard.) Fritsch.; test: Preemergence weed control under flooded paddy conditions, ECHORC (Watergrass (Calif.)); type: in vivo; conditions: flooded paddy; for ECHORC: herbicidal effect rating 0-9, three to four weeks after treatment; for ECHORC herbicidal rating / herbicidal effect rating, ECHORC: rated three to four weeks after treatment; on herbicidal effect rating, ECHORC: meaning of each grade not given here
[4] = test system: Oryza sativa, (L.) Tebonnet; test: Rice tolerance to post-transplant applications under flooded paddy conditions (Example 187), ORYSAT (Rice, Tebonnet); conditions: for ORYSAT: herbicidal effect rating 0-9, three to four weeks after treatment; for ORYSAT herbicidal rating (rice tolerance) / herbicidal effect rating, ORYSAT (rice tolerance) / herbicidal effect rating ORYSAT: rated three to four weeks after treatment
[5] = test system: Monochoria vaginalis, Presl.; test: Preemergence weed control under flooded paddy conditions, MOOVA (Monochoria); type: in vivo; conditions: flooded paddy; for MOOVA: herbicidal effect rating 0-9, three to four weeks after treatment; for MOOVA herbicidal rating / herbicidal effect rating, MOOVA: rated three to four weeks after treatment; on herbicidal effect rating, MOOVA: meaning of each grade not given here
[6] = test system: Cyperus serotinus, Rottb.; test: Preemergence weed control under flooded paddy conditions, CYPSE (Flatsedge); type: in vivo; conditions: for CYPSE: herbicidal effect rating 0-9, three to four weeks after treatment; for CYPSE herbicidal rating / herbicidal effect rating, CYPSE: rated three to four weeks after treatment; on herbicidal effect rating, CYPSE: meaning of each grade not given here
[7] = 0.0320 kg/ha, preemergence weeds
[8] = 0.0620 kg/ha, preemergence weeds
[9] = 0.1250 kg/ha, preemergence weeds
[10] = 0.2500 kg/ha, preemergence weeds
[11] = 0.0313 kg/ha, preemergence weeds
[12] = 0.0625 kg/ha, preemergence weeds
[13] = Rate 0.0320 kg/ha, preemergence
[14] = Rate 0.0620 kg/ha, preemergence
[15] = Rate 0.1250 kg/ha, preemergence
[16] = Rate 0.2500 kg/ha, preemergence

For `CN(C(=O)COc1ccccc1-c1nsc2ccc(-n3c(=O)cc(C(F)(F)F)n(C)c3=O)cc12)S(C)(=O)=O` [Example 438, Acetamide, 2-{o-{5-[3,6-dihydro-3-methyl-2,6-dioxo-4-(trifluoromethyl)-1(2H)-pyrimidinyl]-1,2-benzisothiazol-3-yl}phenoxy}-N-methyl-N-(methylsulfonyl)-], the CYPIR [1, 7] was 4.5, the CYPIR [1, 8] was 6.5 and the CYPIR [1, 9] was 8.5. It also gave a CYPIR [1, 10] of 9.0, an SAGPY [2, 7] of 2.0 and an SAGPY [2, 8] of 3.5. For the same compound, the SAGPY [2, 9] was 8.5, the SAGPY [2, 10] was 9.0 and the ECHORC [3, 7] was 7.0. It also gave an ECHORC [3, 8] of 8.0, an ECHORC [3, 9] of 9.0 and an ECHORC [3, 10] of 9.0. The ORYSAT ([4]; 0.0320 kg/ha) was 4.0, the ORYSAT ([4]; 0.0620 kg/ha) was 5.0 and the ORYSAT ([4]; 0.1250 kg/ha) was 7.0. The ORYSAT ([4]; 0.2500 kg/ha) was 8.0, the MOOVA [5, 7] was 8.0 and the MOOVA [5, 8] was 8.5. The MOOVA [5, 9] was 9.0, the MOOVA [5, 10] was 9.0 and the CYPSE [6, 7] was 4.5. For the same compound, the CYPSE [6, 8] was 9.0, the CYPSE [6, 9] was 7.0 and the CYPSE [6, 10] was 9.0.

`Cn1c(C(F)(F)F)cc(=O)n(-c2ccc3snc(C(=O)NS(=O)(=O)Cc4ccc(OC(F)(F)F)cc4)c3c2)c1=O` [Example 406, 1,2-Benzisothiazole-3-carboxamide, 5-[3,6-dihydro-3-methyl-2,6-dioxo-4-(trifluoromethyl)-1(2H)-pyrimidinyl]-N-{[p-(trifluoromethoxy)-benzyl]sulfonyl}-] showed a CYPIR [1, 7] of 0.0, a CYPIR [1, 8] of 4.0 and a CYPIR [1, 9] of 4.0. The CYPIR [1, 10] was 7.0, the SAGPY [2, 7] was 3.0 and the SAGPY [2, 8] was 4.0. It also gave an SAGPY [2, 9] of 4.0, an SAGPY [2, 10] of 4.0 and an ECHORC [3, 7] of 6.0. For the same compound, the ECHORC [3, 8] was 6.0, the ECHORC [3, 9] was 7.0 and the ECHORC [3, 10] was 7.0. The ORYSAT ([4]; 0.0320 kg/ha) was 0.0, the ORYSAT ([4]; 0.0620 kg/ha) was 0.0 and the ORYSAT ([4]; 0.1250 kg/ha) was 2.0. For the same compound, the ORYSAT ([4]; 0.2500 kg/ha) was 4.0, the MOOVA [5, 7] was 4.0 and the MOOVA [5, 8] was 7.0. For the same compound, the MOOVA [5, 9] was 9.0, the MOOVA [5, 10] was 9.0 and the CYPSE [6, 7] was 0.0. For the same compound, the CYPSE [6, 8] was 0.0, the CYPSE [6, 9] was 3.0 and the CYPSE [6, 10] was 6.0.

Work on `CC(C)NS(=O)(=O)NC(=O)c1nsc2ccc(-n3c(=O)cc(C(F)(F)F)n(C)c3=O)cc12` [Example 508, 1,2-Benzisothiazole-3-carboxamide, 5-[3,6-dihydro-3-methyl-2,6-dioxo-4-(trifluoromethyl)-1(2H)-pyrimidinyl]-N-(isopropylsulfamoyl)-] yielded a CYPIR herbicidal rating ([1]; 0.0320 kg/ha, preemergence) of 6.0, a CYPIR herbicidal rating ([1]; 0.0620 kg/ha, preemergence) of 7.0 and a CYPIR herbicidal rating ([1]; 0.1250 kg/ha, preemergence) of 7.0. The CYPIR herbicidal rating ([1]; 0.2500 kg/ha, preemergence) was 9.0, the SAGPY herbicidal rating ([2]; 0.0320 kg/ha, preemergence) was 5.0 and the SAGPY herbicidal rating ([2]; 0.0620 kg/ha, preemergence) was 6.0. It also gave an SAGPY herbicidal rating ([2]; 0.1250 kg/ha, preemergence) of 9.0, an SAGPY herbicidal rating ([2]; 0.2500 kg/ha, preemergence) of 9.0 and an ECHORC herbicidal rating ([3]; 0.0320 kg/ha, preemergence) of 2.0. It also gave an ECHORC herbicidal rating ([3]; 0.0620 kg/ha, preemergence) of 5.0, an ECHORC herbicidal rating ([3]; 0.1250 kg/ha, preemergence) of 6.0 and an ECHORC herbicidal rating ([3]; 0.2500 kg/ha, preemergence) of 9.0. The “ORYSAT herbicidal rating (rice tolerance)” value (shortened to “ORYSAT herbicidal rating”) ([4]; 0.0320 kg/ha) was 0.0, the “ORYSAT herbicidal rating” value ([4]; 0.0620 kg/ha) was 2.0 and the “ORYSAT herbicidal rating” value ([4]; 0.1250 kg/ha) was 5.0. For the same compound, the “ORYSAT herbicidal rating” value ([4]; 0.2500 kg/ha) was 6.0, the MOOVA herbicidal rating ([5]; 0.0320 kg/ha, preemergence) was 9.0 and the MOOVA herbicidal rating ([5]; 0.0620 kg/ha, preemergence) was 9.0. It also gave an MOOVA herbicidal rating ([5]; 0.1250 kg/ha, preemergence) of 9.0, an MOOVA herbicidal rating ([5]; 0.2500 kg/ha, preemergence) of 9.0 and a CYPSE herbicidal rating ([6]; 0.0320 kg/ha, preemergence) of 0.0.

In the case of `Cn1c(C(F)(F)F)cc(=O)n(-c2ccc3snc(COC(=O)c4ccccc4)c3c2)c1=O` [Example 143, 3-[3-(Hydroxymethyl)-1,2-benzisothiazol-5-yl]-1-methyl-6-(trifluoromethyl)-2,4(1H,3H)-pyrimidinedione, benzoate (ester)], the “herbicidal effect rating, CYPIR” value [1, 11] was 0.0, the “herbicidal effect rating, CYPIR” value [1, 12] was 0.0 and the “herbicidal effect rating, CYPIR” value [1, 9] was 0.0. The “herbicidal effect rating, CYPIR” value [1, 10] was 0.0, the “herbicidal effect rating, SAGPY” value [2, 11] was 0.0 and the “herbicidal effect rating, SAGPY” value [2, 12] was 0.0. The “herbicidal effect rating, SAGPY” value [2, 9] was 0.0, the “herbicidal effect rating, SAGPY” value [2, 10] was 0.0 and the “herbicidal effect rating, ECHORC” value [3, 11] was 0.0. The “herbicidal effect rating, ECHORC” value [3, 12] was 0.0, the “herbicidal effect rating, ECHORC” value [3, 9] was 2.0 and the “herbicidal effect rating, ECHORC” value [3, 10] was 6.0. The “herbicidal effect rating, ORYSAT (rice tolerance)” value (from here on “herbicidal effect rating, ORYSAT”) ([4]; 0.0313 kg/ha) was 3.0, the “herbicidal effect rating, ORYSAT” value ([4]; 0.0625 kg/ha) was 3.0 and the “herbicidal effect rating, ORYSAT” value ([4]; 0.1250 kg/ha) was 3.0. The “herbicidal effect rating, ORYSAT” value ([4]; 0.2500 kg/ha) was 4.0, the “herbicidal effect rating, MOOVA” value [5, 11] was 9.0 and the “herbicidal effect rating, MOOVA” value [5, 12] was 9.0. The “herbicidal effect rating, MOOVA” value [5, 9] was 9.0, the “herbicidal effect rating, MOOVA” value [5, 10] was 9.0 and the “herbicidal effect rating, CYPSE” value [6, 11] was 0.0. The “herbicidal effect rating, CYPSE” value [6, 12] was 0.0, the “herbicidal effect rating, CYPSE” value [6, 9] was 0.0 and the “herbicidal effect rating, CYPSE” value [6, 10] was 0.0.

For `CC(C#N)c1nsc2ccc(-n3c(=O)cc(C(F)(F)F)n(C)c3=O)cc12` (stereo not drawn) [Example 583, 1,2-Benzisothiazole-3-acetonitrile, 5-[3,6-dihydro-3-methyl-2,6-dioxo-4-(trifluoromethyl)-1(2H)-pyrimidinyl]-alpha-methyl-], the “herbicidal effect rating, CYPIR” value [1, 13] was 9.0, the “herbicidal effect rating, CYPIR” value [1, 14] was 9.0 and the “herbicidal effect rating, CYPIR” value [1, 15] was 9.0. The “herbicidal effect rating, CYPIR” value [1, 16] was 9.0, the “herbicidal effect rating, SAGPY” value [2, 13] was 9.0 and the “herbicidal effect rating, SAGPY” value [2, 14] was 9.0. For the same compound, the “herbicidal effect rating, SAGPY” value [2, 15] was 9.0, the “herbicidal effect rating, SAGPY” value [2, 16] was 9.0 and the “herbicidal effect rating, ECHORC” value [3, 13] was 3.0. For the same compound, the “herbicidal effect rating, ECHORC” value [3, 14] was 7.5, the “herbicidal effect rating, ECHORC” value [3, 15] was 9.0 and the “herbicidal effect rating, ECHORC” value [3, 16] was 9.0. The “herbicidal effect rating ORYSAT” value ([4]; Rate 0.0320 kg/ha) was 5.0, the “herbicidal effect rating ORYSAT” value ([4]; Rate 0.0620 kg/ha) was 7.0 and the “herbicidal effect rating ORYSAT” value ([4]; Rate 0.1250 kg/ha) was 9.0. The “herbicidal effect rating ORYSAT” value ([4]; Rate 0.2500 kg/ha) was 9.0, the “herbicidal effect rating, MOOVA” value [5, 13] was 6.0 and the “herbicidal effect rating, MOOVA” value [5, 14] was 9.0. The “herbicidal effect rating, MOOVA” value [5, 15] was 9.0, the “herbicidal effect rating, MOOVA” value [5, 16] was 9.0 and the “herbicidal effect rating, CYPSE” value [6, 13] was 8.5. The “herbicidal effect rating, CYPSE” value [6, 14] was 9.0, the “herbicidal effect rating, CYPSE” value [6, 15] was 9.0 and the “herbicidal effect rating, CYPSE” value [6, 16] was 9.0.

For `Cn1c(C(F)(F)F)cc(=O)n(-c2ccc3snc(C(=O)NS(N)(=O)=O)c3c2)c1=O` [Example 472, 1,2-Benzisothiazole-3-carboxamide, 5-[3,6-dihydro-3-methyl-2,6-dioxo-4-(trifluoromethyl)-1(2H)-pyrimidinyl]-N-sulfamoyl-], the CYPIR herbicidal rating ([1]; 0.0320 kg/ha, preemergence) was 4.0, the CYPIR herbicidal rating ([1]; 0.0620 kg/ha, preemergence) was 4.0 and the CYPIR herbicidal rating ([1]; 0.1250 kg/ha, preemergence) was 5.0. For the same compound, the CYPIR herbicidal rating ([1]; 0.2500 kg/ha, preemergence) was 6.0, the SAGPY herbicidal rating ([2]; 0.0320 kg/ha, preemergence) was 0.0 and the SAGPY herbicidal rating ([2]; 0.0620 kg/ha, preemergence) was 0.0. For the same compound, the SAGPY herbicidal rating ([2]; 0.1250 kg/ha, preemergence) was 2.0, the SAGPY herbicidal rating ([2]; 0.2500 kg/ha, preemergence) was 3.0 and the ECHORC herbicidal rating ([3]; 0.0320 kg/ha, preemergence) was 3.0. For the same compound, the ECHORC herbicidal rating ([3]; 0.0620 kg/ha, preemergence) was 3.0, the ECHORC herbicidal rating ([3]; 0.1250 kg/ha, preemergence) was 4.0 and the ECHORC herbicidal rating ([3]; 0.2500 kg/ha, preemergence) was 4.0. The “ORYSAT herbicidal rating” value ([4]; 0.0320 kg/ha) was 0.0, the “ORYSAT herbicidal rating” value ([4]; 0.0620 kg/ha) was 1.0 and the “ORYSAT herbicidal rating” value ([4]; 0.1250 kg/ha) was 3.0. The “ORYSAT herbicidal rating” value ([4]; 0.2500 kg/ha) was 6.0, the MOOVA herbicidal rating ([5]; 0.0320 kg/ha, preemergence) was 5.0 and the MOOVA herbicidal rating ([5]; 0.0620 kg/ha, preemergence) was 6.0. It also gave an MOOVA herbicidal rating ([5]; 0.1250 kg/ha, preemergence) of 7.0, an MOOVA herbicidal rating ([5]; 0.2500 kg/ha, preemergence) of 7.0 and a CYPSE herbicidal rating ([6]; 0.0320 kg/ha, preemergence) of 0.0. For the same compound, the CYPSE herbicidal rating ([6]; 0.1250 kg/ha, preemergence) was 6.0 and the CYPSE herbicidal rating ([6]; 0.2500 kg/ha, preemergence) was 9.0.
